# Measurements published in paper PMC11243320, “Tailoring Fibroblast-Activation Protein Targeting for Theranostics: A Comparative Preclinical Evaluation of the ^68Ga- and ^177Lu-Labeled Monomeric and Dimeric Fibroblast-Activation Protein Inhibitors DOTA.SA.FAPi and DOTAGA.(SA.FAPi)2” (Molecules, 2024).
# Test system: healthy mice
# Assay: Biodistribution in healthy male and female mice
# Format: in vivo
# Conditions: 1 h p.i.
# Description: Two groups of healthy mice (males and females; n = 4/group) were injected with 10 pmol of [^68Ga]Ga-DOTA.SA.FAPi (0.08–0.1 MBq) in 100 µL of NaCl 0.9% and biodistribution studies were conducted at 1 h p.i. (Supplemental Data).
structure (smiles),measurement,setting,value
N#C[C@@H]1CC(F)(F)CN1C(=O)CNC(=O)c1ccnc2ccc(OCCCCNc3c(NCCNC(=O)CN4CCN(CC(=O)[O-])CCN(CC(=O)[O-])CCN(CC(=O)[O-])CC4)c(=O)c3=O)cc12.[68Ga+3] [[^68Ga]Ga-DOTA.SA.FAPi],Biodistribution Blood,healthy female mice,13.5 ± 4.1 % IA/g
same,Biodistribution Bone,healthy female mice,5.0 ± 0.2 % IA/g
same,Biodistribution Heart,healthy female mice,5.1 ± 0.9 % IA/g
same,Biodistribution Intestine,healthy female mice,3.0 ± 0.3 % IA/g
same,Biodistribution Kidney,healthy female mice,5.0 ± 0.7 % IA/g
same,Biodistribution Liver,healthy female mice,3.3 ± 0.4 % IA/g
same,Biodistribution Lung,healthy female mice,4.3 ± 1.6 % IA/g
same,Biodistribution Muscle,healthy female mice,6.3 ± 3.4 % IA/g
same,Biodistribution Pancreas,healthy female mice,7.6 ± 2.6 % IA/g
same,Biodistribution Spleen,healthy female mice,2.7 ± 0.7 % IA/g
same,Biodistribution Stomach,healthy female mice,1.7 ± 0.04 % IA/g
same,Biodistribution Blood,healthy male mice,8.5 ± 0.1 % IA/g
same,Biodistribution Bone,healthy male mice,1.5 ± 0.9 % IA/g
same,Biodistribution Heart,healthy male mice,3.1 ± 0.04 % IA/g
same,Biodistribution Intestine,healthy male mice,3.1 ± 0.2 % IA/g
same,Biodistribution Kidney,healthy male mice,3.5 ± 0.4 % IA/g
same,Biodistribution Liver,healthy male mice,2.3 ± 0.1 % IA/g
same,Biodistribution Lung,healthy male mice,2.7 ± 0.6 % IA/g
same,Biodistribution Muscle,healthy male mice,2.0 ± 0.3 % IA/g
same,Biodistribution Pancreas,healthy male mice,8.6 ± 0.1 % IA/g
same,Biodistribution Spleen,healthy male mice,2.3 ± 0.1 % IA/g
same,Biodistribution Stomach,healthy male mice,2.0 ± 0.3 % IA/g
